Measurements: patent US7579322B2, “Compositions and methods for promoting myocardial and peripheral angiogenesis” (Zimmer Orthobiologics, Inc., priority 2001, dated 2009)
Ends that are not written are not given here.

Experiments:
[1] = test system: human aortic endothelial cells; test: In vitro cell migration assay (chemotaxis tray / modified Boyden chamber), endothelial cells; format: cell-based; settings: for migration of human aortic endothelial cells: compared to negative control / scramble peptides, 4 hours incubation
Procedure: (§1) The ability of IGD-motif peptides according to the present invention to promote cell migration of human endothelial and smooth muscle cells, which are processes characteristic of angiogenesis, was evaluated by conducting cell migration assays for the peptides of SEQ ID NOS 1 and 2, and a scramble of the IGD peptide characterized by the DIG sequence. A capped version of the scramble characterized by the GGDIGGG (SEQ ID NO:7) sequence was also tested.
(§2) Chemotaxis trays (Chemo Tx disposable migration chamber, 6 mm diameter, 300 μl/well, 96 wells with 8 μm filter membranes from Neuro Probe, Inc., Gaithersville, Md.) for evaluating cell migration of the peptides were sterilized by placing the trays under UV light overnight. Further operations with the membrane were carried out under aseptic conditions. The filter membranes were loaded with gelatin to provide a suitable environment for the cells testing by soaking in 3% acetic acid overnight and then for 2 hours in 0.1 mg/ml gelatin. They were then rinsed in sterile water and allowed to air dry. Such membranes may be stored at room temperature for up to 1 month.
The cells to be used in the assay (endothelial cells or smooth muscle cells) were starved for 24 hours before use in appropriate culture media containing 0.1% Fetal Bovine Serum (“FBS”) instead of the customary 10% FBS serum, and 1× penicillin-streptomycin antibiotics. The wells of the 96 well chamber of the chemotaxis unit were filled with media containing 0.1% serum alone or 0.1% serum and the test material (control or chemoattractant respectively). The filter membrane was positioned over the plate, aligning the holes in the corners of the frame with the four pins on the microplate, and the membrane was snapped into place making sure that the media in the wells touched the membrane completely. Fifty (50) μl of cell suspension in the starvation-media, at a concentration of 4×10^4 viable cells per charge were plated onto each site (over each well). The plate was incubated at 37° C. in an atmosphere of 5% CO2 for 4 hours.
After incubation the lid was removed and with the filter still in place the cells on the upper surface of the membrane were gently wiped off and washed by carefully flushing the top surface of the filter with media by holding the plate with filter at a 45° angle over a container. The cells on the undersurface of the membrane were then fixed in methanol (˜20 minutes) and stain with Diff-Quik Staining Set. The membrane was then allowed to dry and the number of cells that migrated through the filter pores was determined by counting the number in a field under a light microscope.

[2] = test system: human smooth muscle cells; test: In vitro cell migration assay (chemotaxis tray), smooth muscle cells; format: cell-based; settings: compared to controls; 4 hours incubation
Procedure: as §1, §2
The cells to be used in the assay (endothelial cells or smooth muscle cells) were starved for 24 hours before use in appropriate culture media containing 0.1% Fetal Bovine Serum (“FBS”) instead of the customary 10% FBS serum, and 1× penicillin-streptomycin antibiotics. The wells of the 96 well chamber of the chemotaxis unit were filled with media containing 0.1% serum alone or 0.1% serum and the test material (control or chemoattractant respectively). […]
After incubation the lid was removed and with the filter still in place the cells on the upper surface of the membrane were gently wiped off and washed by carefully flushing the top surface of the filter with media by holding the plate with filter at a 45° angle over a container. […] The membrane was then allowed to dry and the number of cells that migrated through the filter pores was determined by counting the number in a field under a light microscope.

[3] = test system: human aortic endothelial cells; test: In vitro cell proliferation assay (CyQuant); format: cell-based; settings: for proliferation of human aortic endothelial cells: compared to controls, 48 hours, two different concentrations
Procedure: The capacity of IGD-motif peptides according to the present invention to promote […] of human aortic endothelial cells was evaluated by conducting in vitro cell proliferation assays for the peptide of SEQ ID NOS 1 and 2, the DIG scramble peptide, and the capped version of the scramble, GGDIGGG (SEQ ID NO:7). Human aortic endothelial cells grown to ˜95% confluency were seeded (5000 cells/well) in growth medium for four hours to allow cells to adhere. The cells were then transferred to the starvation medium described in Example 1 and starved for about 18 hours. The cells were then transferred to starvation medium containing the test peptide, and the cells were allowed to proliferate for an additional 48 hours. The medium was then removed and the wells were washed with PBS. The cells were then subjected to a single freeze-thaw cycle. CyQuant reagent (Molecular Probes, Eugene, Oreg.) was then added to the cells according to the manufacturer's instructions and the cells incubated for 5 minutes in the dark. The intensity of the color—which is directly proportional to the number of cells—is read at an excitation wavelength of 485 nm and the emission wavelength set at 535 nm.

[4] = test system: quail chorioallantoic membrane (CAM); test: Quail chorioallantoic membrane (CAM) angiogenesis assay; format: in vivo, Japanese quail (cotumix cotumix japonica); settings: for angiogenesis / increase in blood vessels in quail CAM: 24 hours incubation, compared to controls / scramble peptides
Procedure: The activity of IGD-motif peptides for inducing migration and proliferation in endothelial or smooth muscle cells in an in vitro quail chorioallantoic membrane (CAM) model was assayed in a similar manner to that described by Parsons-Wingerter et al., Microvascular Research 55:201-214 (1998), the disclosure of which is hereby incorporated herein by reference. Briefly, fertilized Japanese quail eggs (cotumix cotumix japonica) were opened onto petri dishes on day 3 post-incubation. After 7 days of culture, the four IGD-motif peptides tested in Examples 1 and 2 (IGD, GGIGD (residues 1-5 of SEQ ID NO:2), DIG, GGDIGGG (SEQ ID NO: 7)) each dissolved in 1% polyvinyl pyrrolidine prewarmed to 37° C., were distributed evenly onto the surface of a CAM in separate petri dishes. After 24 hours of incubation, the CAM's were fixed, dissected and photographed at 10× magnification to visualize the arterial vascular tree, including endstage vessels. Digital images of triplicate CAM specimens were acquired at 10× magnification in grayscale, binarized to black-and-white, and skeletonized. The vessel branching pattern was analyzed and quantified by the fractal dimension.

dermal fibroblasts = settings: cited from earlier work
rat wound healing model = settings: under certain conditions; cited from earlier work

| Substance | migration of human aortic endothelial cells [1] | cell migration of human smooth muscle cells [2] | proliferation of human aortic endothelial cells [3] | angiogenesis / increase in blood vessels in quail CAM [4] | migration of human aortic endothelial cells compared to the uncapped peptide ([1]; at a 10-fold lower concentration, FIG. 1A) | migration of human aortic endothelial cells ([1]; listed as SEQ ID NO. 2) | proliferation response relative to the uncapped tripeptide ([3]; FIG. 2) | angiogenesis / increase in blood vessels in quail CAM ([4]; listed as capped peptide) | blood vessel increase in quail CAM compared to the uncapped peptide ([4]; at equivalent concentrations, FIG. 3A) | optimal concentration for migration of human aortic endothelial cells ([1]; FIG. 1A) | migration of human aortic endothelial cells ([1]; listed as IGD tripeptide) | migration of human aortic endothelial cells ([1]; listed as SEQ ID NO. 1) | angiogenesis / increase in blood vessels in quail CAM ([4]; listed as uncapped peptide) | cell migration of dermal fibroblasts (dermal fibroblasts) | fibroblast migration (rat wound healing model) | vessel number (rat wound healing model) |
| --- | --- | --- | --- | --- | --- | --- | --- | --- | --- | --- | --- | --- | --- | --- | --- | --- |
| GGDIGGG (not fully specified) [reference compound] | Neither the DIG scramble nor the capped GGDIGGG scramble (SEQ ID NO:7) showed cell migration significantly greater than controls | Neither the DIG scramble nor the capped GGDIGGG scramble (SEQ ID NO:7) showed cell migration significantly greater than controls | Neither the DIG scramble nor the capped GGDIGGG scramble (SEQ ID NO:7), in contrast, showed cell migration significantly greater than controls | neither the DIG scramble nor the GGDIGGG (SEQ ID NO:7) capped scramble promoted angiogenesis significantly better than controls |  |  |  |  |  |  |  |  |  |  |  |  |
| GGIGDGG (not fully specified) [Gly-Gly-Ile-Gly-Asp-Gly-Gly] | increased migratory response | promoted cell migration | promoted cell proliferation | promoted angiogenesis | better migration compared to the uncapped peptide | promoted cell migration | nearly twice that of the uncapped tripeptide | increase in blood vessels | better than the uncapped peptide |  |  |  |  |  |  |  |
| Ile-Gly-Asp (IGD; Cell-attachment-promoting peptide) | increased migratory response | promoted cell migration | promoted cell proliferation | promoted angiogenesis |  |  |  |  |  | 100 μm | dose dependent effect | promoted cell migration | increase in blood vessels | can induce cell migration |  |  |
| Ile-Gly-Asp-Ser (IGDS; Cell-attachment-promoting peptide) |  |  |  |  |  |  |  |  |  |  |  |  |  |  | increase | increase |
